Read-outs that look alike come from different tables or passages of the source.
Legend:
p300 = experiment: Western blot of p53 acetylated by p300 on K382 in LNCaP cells; format: cell-based
Protocol: Top panel: Cell cycle distribution in LNCap cells treated with siRNA (2 bars on the right) in comparison to control LNCaP cells without siRNA treatment (2 bars in the middle), in the absence (−) or presence (+) of Compound 1 for 24 h at the indicated concentration. For comparison, DU-145 cells harboring a combined Rb1 and p53 loss-of-function are included (2 bars on the left). Lower panel: Western blot analysis according to the same experimental conditions as given for the top panel.

NCI-H660 = NCI-H660 prostate cancer CDX mouse model; format: in vivo; conditions: for Tumor growth inhibition: 6 weeks
Text: Left panel: Tumor growth curves. Right panel: Body weight development. The dosing regimen is indicated as dots below the curves. BID: twice daily treatment. QW: once weekly treatment. p.o.: per oral.
NCI-H660 cells represent a rather far advanced PC type in which not only the tumor suppressor functions of Rb1 and p53 have been lost (see Table 1). Furthermore, the cells already have developed a small cell phenotype characteristic of advanced treatment-resistant PC. In contrast, 22Rv1 tumor cells that are wild-type for Rb1 and p53 pathways were less sensitive to Compound 1 treatment when a once weekly dosing scheme was used.
Values larger than 100% indicate tumor regression.

[1] = 5 consecutive days oral toxicity study in CD-1 mice; format: in vivo; conditions: 30 mg/kg/day orally once daily for 5 consecutive days
Protocol: The toxicity of Compound 1 was assessed for several dosing regimens for CD-1 mice, Beagle dogs, and cynomolgus monkeys.

[2] = 14-day daily oral repeated-dose DRF study in Beagle dogs (citrate salt); format: in vivo; conditions: for Cmax / Tmax / half-life: both sexes, Beagle, dog, plasma, po
Protocol: The objective of this dose-range-finding study was to select the dose levels for a potential subsequent toxicity study of Compound 1 by oral administration to Beagle dogs.
Compound 1 (citrate salt) administration in this study was intended once daily for up to 14 consecutive days by oral gavage to groups of naïve Beagle dogs (n=1/sex/group) at dose levels of 0.1, 0.3, 1, 3, 6, or 12 mg Compound 1 per kg bodyweight and day in 0.5% methylcellulose by using a staggered approach. The actual dose levels and durations of dosing were flexibly adapted according to PK and signs of tolerability. For TK evaluation blood samples were collected from each dog on Days 1 and 14 at pre-dose, 1, 2, 4, 8, 12, and 24 hours post-dose.

[3] = 28-day once weekly oral repeated-dose DRF study in cynomolgus monkeys (mesylate salt); format: in vivo; conditions: for Cmax / Tmax / half-life / AUC(0-t): cynomolgus monkey, po; for AUC(0-t): read-out: AUC0-Tlast
Protocol: The objective of the study was to determine the TK profile of Compound 1 following 4 weekly oral administrations to cynomolgus monkeys and to assess reversibility of any changes following a 13-day recovery period.
Male and female cynomolgus monkeys (n=1/sex/group) were orally administered Compound 1 (mesylate salt) at dose levels of 30, 45, 60, or 90 mg/kg/administration for 4 consecutive doses on study days 1, 8, 15, and 22. The vehicle was 0.5% (w/v) methyl cellulose 400 in sterile water. For TK analysis blood samples were collected from each monkey on Days 1, 8, 15 and 22 at pre-dose, 15 min, 30 min, as well as 1, 2, 4, 6, 8, 12, and 24 hours post-dose. Non-compartmental analysis of Compound 1 blood concentrations data sets was performed using the Phoenix® WinNonlin® software (version 6.4).

[4] = female, blood, 45 mg/kg, F, Day 1
[5] = female, blood, 45 mg/kg, F, Day 22
[6] = female, blood, 60 mg/kg, F, Day 1
[7] = female, blood, 60 mg/kg, F, Day 22
[8] = female, blood, 90 mg/kg, F, Day 1
[9] = female, whole blood, 30 mg/kg, F, Day 1
[10] = female, whole blood, 30 mg/kg, F, Day 22
[11] = male, blood, 60 mg/kg, M, Day 1
[12] = male, blood, 60 mg/kg, M, Day 22
[13] = male, blood, 90 mg/kg, M, Day 1
[14] = male, whole blood, 30 mg/kg, M, Day 1
[15] = male, whole blood, 30 mg/kg, M, Day 22
[16] = male, whole blood, 45 mg/kg, M, Day 1
[17] = male, whole blood, 45 mg/kg, M, Day 22

For `CC(C)C[C@@H]1NCCN([C@@H](CC(C)C)C(=O)N2CCC3(C[C@@H]2C)OCC(CN2CCCC2)CO3)C1=O` (stereo partly drawn) [Compound 1, (S)-3-isobutyl-1-((S)-4-methyl-1-((S)-8-methyl-3-(pyrrolidin-1-ylmethyl)-1,5-dioxa-9-azaspiro[5.5]undecan-9-yl)-1-oxopentan-2-yl)piperazin-2-one], the “amount of p53 acetylated by p300 on K382” value (p300; control LNCaP cells) was “increased”, the “HAT/KAT activity of p300” value (p300; inferred from p53 K382 acetylation) was “not inhibited” and the Tumor growth inhibition (NCI-H660; once weekly 15 mg/kg/day, p 0.002) was 74% (0.002)/. The Tumor growth inhibition (NCI-H660; once weekly 30 mg/kg/day, p 0.001) was 84% (0.001), the tumor growth (NCI-H660; once weekly 60 mg/kg) was “complete block of tumor growth” and the Tumor growth inhibition (NCI-H660; once weekly 60 mg/kg/day single dose, p <0.001) was 99% (<0.001)/*6 weeks. For the same molecule, the tolerability [1] was “well-tolerated”, the “accumulation of drug exposure (Day 1 versus Day 14)” value ([2]; 0.1 mg/kg/day) was “no accumulation with time” and the “Total AUC(o-inf)” value ([2]; 0.1 mg/kg/day, Day 1) was 5.6 ng·h/mL. The “accumulation of drug exposure (Day 1 versus Day 14)” value ([2]; 0.3 mg/kg/day) was “slight increase over time”, the “Total AUC(o-inf)” value ([2]; 0.3 mg/kg/day, Day 1) was 13.8 ng·h/mL and the “Total AUC(o-inf)” value ([2]; 1 mg/kg/day, Day 1) was 63.8 ng·h/mL. For the same molecule, the “Total AUC(o-inf)” value ([2]; 3 mg/kg/day, Day 1) was 171.6 ng·h/mL, the “Total AUC(o-inf)” value ([2]; 6 mg/kg/day, Day 1) was 734.8 ng·h/mL and the “Total AUC(o-inf)” value ([2]; 12 mg/kg/day, Day 1) was 936.4 ng·h/mL. The Cmax ([2]; 0.1 mg/kg/day, Day 1, read-out: mean Cmax plasma levels) was 0.6 ng/mL, the Cmax ([2]; 0.1 mg/kg/day, Day 14, read-out: group mean Cmax plasma levels) was 0.4 ng/mL and the Cmax ([2]; 0.3 mg/kg/day, Day 1, read-out: mean Cmax plasma levels) was 2.3 ng/mL. For the same molecule, the Cmax ([2]; 0.3 mg/kg/day, Day 14, read-out: group mean Cmax plasma levels) was 3.8 ng/mL, the Cmax ([2]; 1 mg/kg/day, Day 1, read-out: mean Cmax plasma levels) was 8.6 ng/mL and the Cmax ([2]; 3 mg/kg/day, Day 1, read-out: mean Cmax plasma levels) was 23.8 ng/mL. For the same molecule, the Cmax ([2]; 6 mg/kg/day, Day 1, read-out: mean Cmax plasma levels) was 114 ng/mL, the Cmax ([2]; 12 mg/kg/day, Day 1, read-out: mean Cmax plasma levels) was 182 ng/mL and the Tmax ([2]; 0.1 and 0.3 mg/kg/day, Day 14) was 1 h. For the same molecule, the half-life ([2]; 0.1 and 0.3 mg/kg/day, Day 14, read-out: terminal elimination half-lives) was 4.7 to 5.5 h, the Tmax ([2]; all doses, Day 1) was 1 to 2 h and the half-life ([2]; all doses, Day 1, read-out: elimination half-life) was 3.4 to 6.2 h. The tolerability ([2]; daily oral 0.1 and 0.3 mg/kg/day for 14 days and 1 mg/kg/day for 6 days) was “well-tolerated”, the tolerability ([2]; daily oral 3, 6, and 12 mg/kg/day for 14 days) was “not well-tolerated” and the Cmax [3, 4] was 1460 ng/mL. For the same molecule, the Tmax [3, 4] was 1.5 h, the half-life [3, 4] was 6.3 h and the AUC(0-t) [3, 4] was 4130 ng·h/mL. The Cmax [3, 5] was 1650 ng/mL, the Tmax [3, 5] was 1.5 h and the half-life [3, 5] was 5.8 h. The AUC(0-t) [3, 5] was 4810 ng·h/mL, the Cmax [3, 6] was 1830 ng/mL and the Tmax [3, 6] was 1 h. For the same molecule, the half-life [3, 6] was 3.8 h, the AUC(0-t) [3, 6] was 7440 ng·h/mL and the Cmax [3, 7] was 4480 ng/mL. It also gave a Tmax [3, 7] of 2 h, a half-life [3, 7] of 4.4 h and an AUC(0-t) [3, 7] of 17400 ng·h/mL. It also gave a Cmax [3, 8] of 5030 ng/mL, a Tmax [3, 8] of 1.5 h and a half-life [3, 8] of 4.3 h. For the same molecule, the Cmax [3, 9] was 296 ng/mL, the Tmax [3, 9] was 0.63 h and the half-life [3, 9] was 6.4 h. For the same molecule, the AUC(0-t) [3, 9] was 894 ng·h/mL, the Cmax [3, 10] was 223 ng/mL and the Tmax [3, 10] was 1.25 h. For the same molecule, the half-life [3, 10] was 5.5 h, the AUC(0-t) [3, 10] was 874 ng·h/mL and the AUC(0-t) ([3]; female, whole blood, 90 mg/kg, F, Day 1) was 18700 ng·h/mL. For the same molecule, the Cmax [3, 11] was 449 ng/mL, the Tmax [3, 11] was 0.5 h and the half-life [3, 11] was 7.5 h. It also gave an AUC(0-t) [3, 11] of 1170 ng·h/mL, a Cmax [3, 12] of 2430 ng/mL and a Tmax [3, 12] of 1 h. For the same molecule, the half-life [3, 12] was 5.7 h, the AUC(0-t) [3, 12] was 6710 ng·h/mL and the Cmax [3, 13] was 7300 ng/mL. The Tmax [3, 13] was 0.63 h, the half-life [3, 13] was 4.2 h and the AUC(0-t) [3, 13] was 22800 ng·h/mL. The Cmax [3, 14] was 229 ng/mL, the Tmax [3, 14] was 0.63 h and the half-life [3, 14] was 4.9 h. The AUC(0-t) [3, 14] was 721 ng·h/mL, the Cmax [3, 15] was 171 ng/mL and the Tmax [3, 15] was 2 h. The half-life [3, 15] was 2.6 h, the AUC(0-t) [3, 15] was 576 ng·h/mL and the Cmax [3, 16] was 1040 ng/mL. It also gave a Tmax [3, 16] of 1.5 h, a half-life [3, 16] of 7.6 h and an AUC(0-t) [3, 16] of 2950 ng·h/mL. It also gave a Cmax [3, 17] of 1350 ng/mL, a Tmax [3, 17] of 1.25 h and a half-life [3, 17] of 5.2 h. The AUC(0-t) [3, 17] was 3910 ng·h/mL, the accumulation ([3]; once weekly for 4 weeks at doses up to 60 mg/kg) was “did not accumulate” and the tolerability ([3]; single oral administration of 90 mg/kg/adm) was “side effects in one animal”. For the same molecule, the tolerability ([3]; weekly oral for 4 consecutive weeks at 30, 45, and 60 mg/kg/administration) was “well-tolerated”.
